Legend:
[1] = molecular target: Serine/threonine-protein kinase 10 (Homo sapiens, UniProt O94804); experiment: Inhibition of STK10 (unknown origin)
[2] = molecular target: RAC-beta serine/threonine-protein kinase (Homo sapiens, UniProt P31751); experiment: Inhibition of AKT2 (unknown origin)
Chain of RAC-beta serine/threonine-protein kinase (P31751 whole entry): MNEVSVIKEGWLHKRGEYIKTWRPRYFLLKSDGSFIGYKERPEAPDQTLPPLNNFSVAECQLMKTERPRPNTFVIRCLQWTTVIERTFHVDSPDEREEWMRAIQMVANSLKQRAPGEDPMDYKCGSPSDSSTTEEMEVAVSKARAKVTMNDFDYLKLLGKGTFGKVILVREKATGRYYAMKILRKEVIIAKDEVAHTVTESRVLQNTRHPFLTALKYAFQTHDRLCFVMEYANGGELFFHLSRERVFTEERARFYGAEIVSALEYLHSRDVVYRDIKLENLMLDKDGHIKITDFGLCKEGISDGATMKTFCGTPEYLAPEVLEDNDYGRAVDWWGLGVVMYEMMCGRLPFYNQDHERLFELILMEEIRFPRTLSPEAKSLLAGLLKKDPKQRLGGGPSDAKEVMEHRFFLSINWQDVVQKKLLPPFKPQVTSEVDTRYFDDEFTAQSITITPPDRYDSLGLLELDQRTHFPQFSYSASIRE

Chain of Serine/threonine-protein kinase 10 (O94804 whole entry): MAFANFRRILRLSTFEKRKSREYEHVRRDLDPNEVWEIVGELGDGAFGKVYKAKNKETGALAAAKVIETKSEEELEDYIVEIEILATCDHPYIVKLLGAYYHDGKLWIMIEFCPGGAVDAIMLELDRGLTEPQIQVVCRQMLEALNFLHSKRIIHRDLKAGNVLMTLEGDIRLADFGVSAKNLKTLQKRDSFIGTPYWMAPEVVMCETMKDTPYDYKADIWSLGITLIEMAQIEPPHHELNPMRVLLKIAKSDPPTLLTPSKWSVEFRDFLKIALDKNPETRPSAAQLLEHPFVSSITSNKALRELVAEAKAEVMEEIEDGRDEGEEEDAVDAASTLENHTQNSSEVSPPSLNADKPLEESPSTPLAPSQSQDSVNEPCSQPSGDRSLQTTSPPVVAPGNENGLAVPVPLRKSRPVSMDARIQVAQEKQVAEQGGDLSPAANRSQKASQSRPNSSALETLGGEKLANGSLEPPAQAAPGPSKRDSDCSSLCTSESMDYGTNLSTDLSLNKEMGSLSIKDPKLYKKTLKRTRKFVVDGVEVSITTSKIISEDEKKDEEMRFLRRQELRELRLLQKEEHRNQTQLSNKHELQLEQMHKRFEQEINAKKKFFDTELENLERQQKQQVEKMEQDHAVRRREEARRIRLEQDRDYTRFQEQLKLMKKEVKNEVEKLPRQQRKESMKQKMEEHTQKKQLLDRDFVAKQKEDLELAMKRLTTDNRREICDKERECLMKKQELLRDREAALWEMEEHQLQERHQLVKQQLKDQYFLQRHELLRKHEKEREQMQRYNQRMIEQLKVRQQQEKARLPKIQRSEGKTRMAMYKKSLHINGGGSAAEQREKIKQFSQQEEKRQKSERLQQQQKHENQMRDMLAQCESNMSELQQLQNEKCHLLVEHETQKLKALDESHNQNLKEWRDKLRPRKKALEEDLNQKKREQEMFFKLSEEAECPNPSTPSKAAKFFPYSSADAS

| Ki [1] [µM] | Ki [2] [µM] | SMILES |
| --- | --- | --- |
| > 10 | – | Oc1ccc(-c2nc(-c3ccncc3)c(-c3ccc(F)cc3)[nH]2)cc1 [SB-202190] |
| – | > 10 | COc1cc(N2CCC(N3CCN(C)CC3)CC2)ccc1Nc1ncc(Cl)c(Nc2ccccc2S(=O)(=O)C(C)C)n1 [TAE-684] |

Source: ChEMBL document CHEMBL3822417, “Predictive proteochemometric models for kinases derived from 3D protein field-based descriptors” (Medchemcomm, 2016)
